# Test results published in PubChem BioAssay AID588580 (Sanford-Burnham Center for Chemical Genomics, 2011).
# The source made the active and inactive calls.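 How the source made its calls: active means mean EC50 of 20 µM or lower; inactive means the rest.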
# Target: CHO XBP1-luciferase reporter, UPR activation, luminescence
# Assay: XBP1 luciferase reporter activation in CHO cells – cell-based, luciferase luminescence, set 2, SAR follow-up (AID 588580)
row,SMILES,EC50
1,O=C(Nc1ccc(Br)c(C(F)(F)F)c1)c1cc(-c2ccncc2)nc2ccccc12,> 80 µM (inactive)
2,O=C(Nc1ccc(F)c(F)c1)c1cc(-c2ccncc2)nc2ccccc12,inactive
3,Cc1cc(NC(=O)c2cc(-c3ccncc3)nc3ccccc23)ccc1F,> 80 µM (inactive)
4,O=C(Nc1ccc(Cl)cc1)c1cc(-c2ccncc2)nc2ccccc12,8.42 µM
5,O=C(Nc1ccccc1Br)c1cc(-c2ccncc2)nc2ccccc12,> 80 µM (inactive)
6,O=C(Nc1ccc(F)cc1)c1cc(-c2ccncc2)nc2ccccc12,inactive
7,Cc1ccc(NC(=O)c2cc(-c3ccncc3)nc3ccccc23)cc1,13.4 µM
8,O=C(Nc1cccc(F)c1F)c1cc(-c2ccncc2)nc2ccccc12,> 80 µM (inactive)
9,O=C(Nc1cccc(Br)c1)c1cc(-c2ccncc2)nc2ccccc12,> 80 µM (inactive)
10,O=C(Nc1cccc(C(F)(F)F)c1)c1cc(-c2ccncc2)nc2ccccc12,> 80 µM (inactive)
11,Cc1cc(Br)cc(NC(=O)c2cc(-c3ccncc3)nc3ccccc23)c1,> 80 µM (inactive)
12,O=C(Nc1cccc(F)c1Br)c1cc(-c2ccncc2)nc2ccccc12,> 80 µM (inactive)
13,Cc1cc(NC(=O)c2cc(-c3ccccc3)nc3ccccc23)ccc1Br,> 80 µM (inactive)
14,O=C(Nc1cccc(Cl)c1)c1cc(-c2ccncc2)nc2ccccc12,> 80 µM (inactive)
15,O=C(Nc1ccc(C(F)(F)F)cc1)c1cc(-c2ccncc2)nc2ccccc12,2.2 µM
16,Cc1cc(NC(=O)c2cc(-c3ccncc3)nc3ccccc23)ccc1Cl,inactive
17,O=C(Nc1cccc(F)c1)c1cc(-c2ccncc2)nc2ccccc12,inactive
18,COc1cccc(NC(=O)c2cc(-c3ccncc3)nc3ccccc23)c1,> 80 µM (inactive)
19,Cc1cccc(NC(=O)c2cc(-c3ccncc3)nc3ccccc23)c1,> 80 µM (inactive)
20,O=C(Nc1cc(F)ccc1F)c1cc(-c2ccncc2)nc2ccccc12,> 80 µM (inactive)
